One assay has as its target Human β2 adrenoceptor (Homo sapiens, UniProt P07550). The conditions noted are these: read-out: B2 binding affinity.
A further assay concerns the target Human M3 receptor (Homo sapiens, UniProt P20309). As to conditions: read-out: M3 binding affinity.

pIC50: −log10 of the molar value. Where only a bound is given, the exact number is not on record here.

Sequence of Human β2 adrenoceptor (P07550 whole entry): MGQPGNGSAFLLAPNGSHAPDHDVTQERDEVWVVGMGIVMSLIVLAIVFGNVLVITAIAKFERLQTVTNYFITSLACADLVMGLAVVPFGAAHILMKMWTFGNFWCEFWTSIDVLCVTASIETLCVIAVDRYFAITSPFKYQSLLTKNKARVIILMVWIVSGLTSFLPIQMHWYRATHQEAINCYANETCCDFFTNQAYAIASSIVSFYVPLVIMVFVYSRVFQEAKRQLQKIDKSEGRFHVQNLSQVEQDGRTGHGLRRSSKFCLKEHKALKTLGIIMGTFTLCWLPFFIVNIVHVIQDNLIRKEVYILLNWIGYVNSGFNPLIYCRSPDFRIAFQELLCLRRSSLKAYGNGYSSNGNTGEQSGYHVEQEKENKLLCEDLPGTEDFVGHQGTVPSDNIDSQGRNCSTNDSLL
Sequence of Human M3 receptor (P20309 whole entry): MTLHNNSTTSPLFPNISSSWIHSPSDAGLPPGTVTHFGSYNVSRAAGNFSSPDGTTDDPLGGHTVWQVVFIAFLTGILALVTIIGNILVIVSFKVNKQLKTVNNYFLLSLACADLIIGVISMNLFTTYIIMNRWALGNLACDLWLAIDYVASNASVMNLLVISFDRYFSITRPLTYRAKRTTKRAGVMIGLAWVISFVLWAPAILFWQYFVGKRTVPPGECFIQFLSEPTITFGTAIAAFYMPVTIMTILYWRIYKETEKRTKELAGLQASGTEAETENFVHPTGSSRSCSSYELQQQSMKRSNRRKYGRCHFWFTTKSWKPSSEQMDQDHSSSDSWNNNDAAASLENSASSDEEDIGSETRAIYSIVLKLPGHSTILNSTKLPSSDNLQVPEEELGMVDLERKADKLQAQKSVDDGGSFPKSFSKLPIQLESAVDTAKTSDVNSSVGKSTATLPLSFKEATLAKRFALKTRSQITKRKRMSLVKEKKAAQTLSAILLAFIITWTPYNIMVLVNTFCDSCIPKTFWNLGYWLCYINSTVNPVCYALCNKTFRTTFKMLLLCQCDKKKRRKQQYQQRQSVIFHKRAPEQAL

On to `O=C(c1cccc(COc2cccc([C@](O)(C(=O)OCC3CCN(Cc4ccccc4)CC3)c3ccccc3)c2)c1)N1CCC(CNC[C@H](O)c2ccc(O)c3[nH]c(=O)ccc23)CC1` [Compound 35, (S)-(1-benzylpiperidin-4-yl)methyl 2-hydroxy-2-(3-((3-(4-((((R)-2-hydroxy-2-(8-hydroxy-2-oxo-1,2-dihydroquinolin-5-yl)ethyl)amino)methyl)-piperidine-1-carbonyl)benzyl)oxy)phenyl)-2-phenylacetate], for which the pIC50 at Human β2 adrenoceptor and at Human M3 receptor was above 9.52 each time.

Take `O=C(COc1cccc([C@](O)(C(=O)OCC2CCN(Cc3ccccc3)CC2)c2ccccc2)c1)N[C@H]1CCN(C(=O)c2ccc(CNC[C@H](O)c3ccc(O)c4[nH]c(=O)ccc34)cc2)C1` [Compound 70, (1-benzylpiperidin-4-yl)methyl (S)-2-hydroxy-2-(3-(2-(((S)-1-(4-((((R)-2-hydroxy-2-(8-hydroxy-2-oxo-1,2-dihydroquinolin-5-yl)ethyl)amino)methyl)benzoyl)pyrrolidin-3-yl)amino)-2-oxoethoxy)phenyl)-2-phenylacetate]: the pIC50 at Human β2 adrenoceptor and on Human M3 receptor was 8.52 to 9.52 each time.

For the compound `O=C(c1ccc(CCNC[C@H](O)c2ccc(O)c3[nH]c(=O)ccc23)cc1)N1CCC2(CC1)CCN(C(=O)c1ccc(COc3cccc([C@](O)(C(=O)OCC4CCN(Cc5ccccc5)CC4)c4ccccc4)c3)cc1)CC2` [Compound 115, (1-benzylpiperidin-4-yl)methyl (S)-2-hydroxy-2-(3-((4-(9-(4-(2-(((R)-2-hydroxy-2-(8-hydroxy-2-oxo-1,2-dihydroquinolin-5-yl)ethyl)amino)ethyl)benzoyl)-3,9-diazaspiro[5.5]undecane-3-carbonyl)benzyl)oxy)phenyl)-2-phenylacetate], the pIC50 at Human β2 adrenoceptor and at Human M3 receptor was 8.52 to 9.52 throughout.

`O=C(COc1cccc([C@](O)(C(=O)OCC2CCN(Cc3ccccc3)CC2)c2ccccc2)c1)N1CCC2(CC1)CCN(C(=O)c1ccc(CCNC[C@H](O)c3ccc(O)c4[nH]c(=O)ccc34)cc1)CC2` [Compound 95, (1-benzylpiperidin-4-yl)methyl (S)-2-hydroxy-2-(3-(2-(9-(4-(2-(((R)-2-hydroxy-2-(8-hydroxy-2-oxo-1,2-dihydroquinolin-5-yl)ethyl)amino)ethyl)benzoyl)-3,9-diazaspiro[5.5]undecan-3-yl)-2-oxoethoxy)phenyl)-2-phenylacetate]: the pIC50 on Human β2 adrenoceptor and on Human M3 receptor was above 9.52 each time.

With `O=C(COc1cccc([C@](O)(C(=O)OCC2CCN(Cc3ccccc3)CC2)c2ccccc2)c1)N[C@H]1C[C@H](NC(=O)c2ccc(CNC[C@H](O)c3ccc(O)c4[nH]c(=O)ccc34)cc2)C1` [Compound 63, (1-benzylpiperidin-4-yl)methyl (S)-2-hydroxy-2-(3-(2-(((1R,3S)-3-(4-((((R)-2-hydroxy-2-(8-hydroxy-2-oxo-1,2-dihydroquinolin-5-yl)ethyl)amino)methyl)benzamido)cyclobutyl)amino)-2-oxoethoxy)phenyl)-2-phenylacetate], the pIC50 on Human β2 adrenoceptor and on Human M3 receptor was above 9.52 throughout.

For `COc1cc(C(=O)NCC(=O)N2CCC(COc3cccc([C@](O)(C(=O)OCC4CCN(Cc5ccccc5)CC4)c4ccccc4)c3)CC2)ccc1CNC[C@H](O)c1ccc(O)c2[nH]c(=O)ccc12` [Compound 153, (1-benzylpiperidin-4-yl)methyl (S)-2-hydroxy-2-(3-((1-((4-((((R)-2-hydroxy-2-(8-hydroxy-2-oxo-1,2-dihydroquinolin-5-yl)ethyl)amino)methyl)-3-methoxybenzoyl)glycyl)piperidin-4-yl)methoxy)phenyl)-2-phenylacetate], the pIC50 at Human β2 adrenoceptor and at Human M3 receptor was above 9.52 throughout.

For `O=C(OCC1CCN(Cc2ccccc2)CC1)[C@](O)(c1ccccc1)c1cccc(OCCCCCCCNC[C@H](O)c2ccc(O)c3[nH]c(=O)ccc23)c1` [Compound 28, (S)-(1-benzylpiperidin-4-yl)methyl 2-hydroxy-2-(3-((7-(((R)-2-hydroxy-2-(8-hydroxy-2-oxo-1,2-dihydroquinolin-5-yl)ethyl)amino)heptyl)oxy)phenyl)-2-phenylacetate], the pIC50 on Human β2 adrenoceptor and on Human M3 receptor was 8.52 to 9.52 in each case.

For the compound `O=C(OCC1CCN(Cc2ccccc2)CC1)C(O)(c1ccccc1)c1cccc(OCCCCCNC[C@H](O)c2ccc(O)c3[nH]c(=O)ccc23)c1` (stereo partly drawn) [Compound 1, (1-Benzylpiperidin-4-yl)methyl 2-hydroxy-2-(3-((5-(((R)-2-hydroxy-2-(8-hydroxy-2-oxo-1,2-dihydroquinolin-5-yl)ethyl)amino)pentyl)oxy)phenyl)-2-phenylacetate], the results for the pIC50 at Human β2 adrenoceptor and on Human M3 receptor were above 9.52 and 8.52 to 9.52, respectively.

Take `CN1CCC(COC(=O)[C@](O)(c2ccccc2)c2cccc(OCCCCCNC[C@H](O)c3ccc(O)c4[nH]c(=O)ccc34)c2)CC1` [Compound 23, (S)-(1-methylpiperidin-4-yl)methyl 2-hydroxy-2-(3-((5-(((R)-2-hydroxy-2-(8-hydroxy-2-oxo-1,2-dihydroquinolin-5-yl)ethyl)amino)pentyl)oxy)phenyl)-2-phenylacetate]: the pIC50 at Human β2 adrenoceptor and on Human M3 receptor was 8.52 to 9.52 throughout.

`COc1cc(C(=O)N2CC(NC(=O)COc3cccc([C@](O)(C(=O)OCC4CCN(Cc5ccccc5)CC4)c4ccccc4)c3)C2)ccc1CNC[C@H](O)c1ccc(O)c2[nH]c(=O)ccc12` [Compound 78, (1-benzylpiperidin-4-yl)methyl (S)-2-hydroxy-2-(3-(2-((1-(4-((((R)-2-hydroxy-2-(8-hydroxy-2-oxo-1,2-dihydroquinolin-5-yl)ethyl)amino)methyl)-3-methoxybenzoyl)azetidin-3-yl)amino)-2-oxoethoxy)phenyl)-2-phenylacetate]: the pIC50 on Human β2 adrenoceptor and at Human M3 receptor was above 9.52 in each case.

For `O=C(NCCCOc1cccc([C@](O)(C(=O)OC2CCN(Cc3ccccc3)CC2)c2ccccc2)c1)c1ccc(CNC[C@H](O)c2ccc(O)c3[nH]c(=O)ccc23)cc1` [Compound 158, 1-Benzylpiperidin-4-yl (S)-2-hydroxy-2-(3-(3-(4-((((R)-2-hydroxy-2-(8-hydroxy-2-oxo-1,2-dihydroquinolin-5-yl)ethyl)amino)methyl)benzamido)propoxy)phenyl)-2-phenylacetate], the pIC50 at Human β2 adrenoceptor was above 9.52.

With `O=C(NCCCOc1cccc([C@](O)(C(=O)OC[C@@H]2CCN(Cc3ccccc3)C2)c2ccccc2)c1)c1ccc(CNC[C@H](O)c2ccc(O)c3[nH]c(=O)ccc23)cc1` [Compound 159, ((R)-1-benzylpyrrolidin-3-yl)methyl (S)-2-hydroxy-2-(3-(3-(4-((((R)-2-hydroxy-2-(8-hydroxy-2-oxo-1,2-dihydroquinolin-5-yl)ethyl)amino)methyl)benzamido)propoxy)phenyl)-2-phenylacetate], the pIC50 on Human β2 adrenoceptor was above 9.52.

As to `CN(C)CCOC(=O)[C@@](O)(c1ccccc1)c1cccc(OCCCCCNC[C@H](O)c2ccc(O)c3[nH]c(=O)ccc23)c1` [Compound 18, (R)-2-(dimethylamino)ethyl 2-hydroxy-2-(3-((5-(((R)-2-hydroxy-2-(8-hydroxy-2-oxo-1,2-dihydroquinolin-5-yl)ethyl)amino)pentyl)oxy)phenyl)-2-phenylacetate], at Human β2 adrenoceptor, the pIC50 was above 9.52.

Regarding `O=C(NCCCOc1cccc([C@](O)(C(=O)O[C@H]2CCN(Cc3ccccc3)C2)c2ccccc2)c1)c1ccc(CNC[C@H](O)c2ccc(O)c3[nH]c(=O)ccc23)cc1` [Compound 164, (S)-1-benzylpyrrolidin-3-yl (S)-2-hydroxy-2-(3-(3-(4-((((R)-2-hydroxy-2-(8-hydroxy-2-oxo-1,2-dihydroquinolin-5-yl)ethyl)amino)methyl)benzamido)propoxy)phenyl)-2-phenylacetate], the pIC50 on Human β2 adrenoceptor is 8.52 to 9.52.

Consider `CN1CCC(OC(=O)[C@](O)(c2ccccc2)c2cccc(OCCCCCNC[C@H](O)c3ccc(O)c4[nH]c(=O)ccc34)c2)CC1` [Compound 21, (S)-1-methylpiperidin-4-yl 2-hydroxy-2-(3-((5-(((R)-2-hydroxy-2-(8-hydroxy-2-oxo-1,2-dihydroquinolin-5-yl)ethyl)amino)pentyl)oxy)phenyl)-2-phenylacetate], for which the pIC50 on Human β2 adrenoceptor is above 9.52.

For `CN1CC(OC(=O)[C@](O)(c2ccccc2)c2cccc(OCCCCCNC[C@H](O)c3ccc(O)c4[nH]c(=O)ccc34)c2)C1` [Compound 26, (S)-1-methylazetidin-3-yl 2-hydroxy-2-(3-((5-(((R)-2-hydroxy-2-(8-hydroxy-2-oxo-1,2-dihydroquinolin-5-yl)ethyl)amino)pentyl)oxy)phenyl)-2-phenylacetate], at Human β2 adrenoceptor, the pIC50 was above 9.52.

For the compound `CN1CCC(OC(=O)[C@@](O)(c2ccccc2)c2cccc(OCCCCCNC[C@H](O)c3ccc(O)c4[nH]c(=O)ccc34)c2)CC1` [Compound 22, (R)-1-methylpiperidin-4-yl 2-hydroxy-2-(3-((5-(((R)-2-hydroxy-2-(8-hydroxy-2-oxo-1,2-dihydroquinolin-5-yl)ethyl)amino)pentyl)oxy)phenyl)-2-phenylacetate], the pIC50 on Human β2 adrenoceptor is above 9.52.

Regarding `CN1CC[C@@H](OC(=O)[C@@](O)(c2ccccc2)c2cccc(OCCCCCNC[C@H](O)c3ccc(O)c4[nH]c(=O)ccc34)c2)C1` [Compound 20, (R)-(R)-1-methylpyrrolidin-3-yl 2-hydroxy-2-(3-((5-(((R)-2-hydroxy-2-(8-hydroxy-2-oxo-1,2-dihydroquinolin-5-yl)ethyl)amino)pentyl)oxy)phenyl)-2-phenylacetate], on Human β2 adrenoceptor, the pIC50 is above 9.52.

For the compound `CN(C)CCOC(=O)[C@](O)(c1ccccc1)c1cccc(OCCCCCNC[C@H](O)c2ccc(O)c3[nH]c(=O)ccc23)c1` [Compound 17, (S)-2-(dimethylamino)ethyl 2-hydroxy-2-(3-((5-(((R)-2-hydroxy-2-(8-hydroxy-2-oxo-1,2-dihydroquinolin-5-yl)ethyl)amino)pentyl)oxy)phenyl)-2-phenylacetate], on Human β2 adrenoceptor, the pIC50 was 8.52 to 9.52.

Regarding `CN1CC[C@@H](OC(=O)[C@](O)(c2ccccc2)c2cccc(OCCCCCNC[C@H](O)c3ccc(O)c4[nH]c(=O)ccc34)c2)C1` [Compound 19], the pIC50 on Human β2 adrenoceptor was above 9.52.

(Values after patent US9579314B2 (priority 2015, dated 2017).)
